Assays:
[1] = Inhibition of concanavalin A-induced cell proliferation of T cells (unknown origin) at 10 uM after 72 hrs by MTT assay; type: functional
B-cell = test: Inhibition of LPS-induced cell proliferation of B cells (unknown origin) at 10 uM after 72 hrs by MTT assay; type: functional
[2] = Solubility in water; type: physicochemical
THP-1 [3] = test: Inhibition of LPS-induced IL6 production in human THP1 cells after 24 hrs; type: functional, cell-based; settings: THP-1, 24 h
THP-1 [4] = test: Inhibition of LPS-induced TNFalpha production in human THP1 cells after 24 hrs; type: functional, cell-based; settings: THP-1, 24 h

Structure (SMILES)	inhibition at 10 µM [1] [%]	inhibition at 10 µM (B-cell) [%]	solubility [2] [µg/mL]	IC50 (THP-1 [3]) [nM]	IC50 (THP-1 [4]) [nM]
COc1c(O)c(CN2CCC[C@H]2C(=O)O)c2c(c1O)[C@@H]1O[C@H](CO)[C@@H](O)[C@H](O)[C@H]1OC2=O	17.3	28.2	> 1500	918	25500
COc1c(O)c(CN(C)C)c2c(c1O)[C@@H]1O[C@H](CO)[C@@H](O)[C@H](O)[C@H]1OC2=O	21.1	44	> 1500	211	> 30000
COc1c(O)c(CN2CCOCC2)c2c(c1O)[C@@H]1O[C@H](CO)[C@@H](O)[C@H](O)[C@H]1OC2=O	37.5	31.6	> 1500	1860	16000
COc1c(O)c(CN(C)CC(=O)O)c2c(c1O)[C@@H]1O[C@H](CO)[C@@H](O)[C@H](O)[C@H]1OC2=O	4	17	> 1500	1630	> 30000
COc1c(O)c(CN2CCCC2)c2c(c1O)[C@@H]1O[C@H](CO)[C@@H](O)[C@H](O)[C@H]1OC2=O	14.8	2.5	> 1500	755	> 30000
CCCN(CCC)Cc1c(O)c(OC)c(O)c2c1C(=O)O[C@@H]1[C@@H](O)[C@H](O)[C@@H](CO)O[C@@H]21	10.3	2.8	> 1500	361	> 30000
COc1c(O)c(CN2CCC(c3ccccc3)CC2)c2c(c1O)[C@@H]1O[C@H](CO)[C@@H](O)[C@H](O)[C@H]1OC2=O	37.2	28.2	> 1500	351	> 30000
COc1c(O)c(CN2C[C@@H](O)CC2C(=O)O)c2c(c1O)[C@@H]1O[C@H](CO)[C@@H](O)[C@H](O)[C@H]1OC2=O (stereo not given in full)	6.5	11.4	> 1500	322	> 30000
